Measured values published in ChEMBL document CHEMBL3608278 (J Med Chem, 2015).

Assays:
[1] = target: T1, Potassium voltage-gated channel subfamily A member 3 (Homo sapiens, UniProt P22001); set-up: species or system Blood
[2] = target: T1, Potassium voltage-gated channel subfamily A member 3; assay: cell-based; set-up: species or system Blood

T1 sequence (P22001 whole entry): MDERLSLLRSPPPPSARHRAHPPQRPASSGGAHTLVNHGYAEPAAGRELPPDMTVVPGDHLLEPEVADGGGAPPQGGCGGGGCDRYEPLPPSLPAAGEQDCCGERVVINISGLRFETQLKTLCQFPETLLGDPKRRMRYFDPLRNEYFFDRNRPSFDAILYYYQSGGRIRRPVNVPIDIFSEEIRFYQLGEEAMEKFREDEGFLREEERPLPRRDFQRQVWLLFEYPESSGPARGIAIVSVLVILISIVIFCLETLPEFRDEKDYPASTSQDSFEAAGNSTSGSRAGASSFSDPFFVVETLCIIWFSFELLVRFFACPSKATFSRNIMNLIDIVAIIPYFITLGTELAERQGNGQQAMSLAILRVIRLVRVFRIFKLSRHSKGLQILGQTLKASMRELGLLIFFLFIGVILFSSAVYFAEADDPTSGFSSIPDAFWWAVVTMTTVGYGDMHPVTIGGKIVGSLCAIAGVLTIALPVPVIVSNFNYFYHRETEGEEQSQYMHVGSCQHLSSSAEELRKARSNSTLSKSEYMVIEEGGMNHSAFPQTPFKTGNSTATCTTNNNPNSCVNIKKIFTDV

Row | Compound | IC50 [1] [nM] | IC50 [2] [nM]
1 | CCCC[C@@H]1NC(=O)[C@H](CO)NC(=O)[C@H](Cc2c[nH]cn2)NC(=O)[C@H](CCCCN)NC(=O)[C@@H]2CSSC[C@@H]3NC(=O)[C@H]([C@@H](C)O)NC(=O)[C@H](CCCCN)NC(=O)[C@H](CCCNC(=N)N)NC(=O)[C@H](CSSC[C@H](NC(=O)[C@H](CCCNC(=N)N)NC(=O)[C@H](CO)NC(=O)[C@H](CCCCN)NC(=O)[C@@H]4CCCN4C(=O)[C@H]([C@@H](C)CC)NC(=O)[C@H]([C@@H](C)O)NC(=O)[C@H](CC(=O)O)NC(=O)[C@H]([C@@H](C)CC)NC(=O)[C@@H](NC(=O)[C@H](CO)NC(=O)[C@@H](N)CCCNC(=N)N)CSSC[C@@H](C(N)=O)NC(=O)[C@H]([C@@H](C)O)NC(=O)CNC3=O)C(=O)N[C@@H]([C@@H](C)O)C(=O)N[C@@H](C)C(=O)N[C@@H](Cc3ccccc3)C(=O)N[C@@H](CCCCN)C(=O)N2)NC(=O)[C@H](Cc2ccccc2)NC(=O)[C@H](CO)NC(=O)[C@H](CC(C)C)NC(=O)[C@H](CCCNC(=N)N)NC(=O)[C@H](Cc2ccc(O)cc2)NC(=O)[C@H](CCCCN)NC1=O | 1.1 | 0.823
2 | CC[C@H](C)[C@@H]1NC(=O)[C@@H](NC(=O)[C@H](CO)NC(=O)[C@@H](N)CCCNC(=N)N)CSSC[C@@H](C(=O)O)NC(=O)[C@H]([C@@H](C)O)NC(=O)CNC(=O)[C@@H]2CSSC[C@@H]3NC(=O)[C@H](CCC(N)=O)NC(=O)[C@H](Cc4ccccc4)NC(=O)[C@H](C)NC(=O)[C@H]([C@@H](C)O)NC(=O)[C@H](CSSC[C@H](NC(=O)[C@H](Cc4ccccc4)NC(=O)[C@H](CO)NC(=O)[C@H](CC(C)C)NC(=O)[C@H](CCCNC(=N)N)NC(=O)[C@H](Cc4ccc(O)cc4)NC(=O)[C@H](CCCCN)NC(=O)[C@H](CCSC)NC(=O)[C@H](CO)NC(=O)[C@H](Cc4c[nH]cn4)NC(=O)[C@H](CCCCN)NC3=O)C(=O)N[C@@H](CCCNC(=N)N)C(=O)N[C@@H](CCCCN)C(=O)N[C@@H]([C@@H](C)O)C(=O)N2)NC(=O)[C@H](CCCNC(=N)N)NC(=O)[C@H](CO)NC(=O)[C@H](CCCCN)NC(=O)[C@@H]2CCCN2C(=O)[C@H]([C@@H](C)CC)NC(=O)[C@H](CCC(=O)O)NC(=O)[C@H](CC(=O)O)NC1=O | 0.109 | 0.074
3 | CC[C@H](C)[C@@H]1NC(=O)[C@@H](NC(=O)[C@H](CO)NC(=O)[C@@H](N)CCCNC(=N)N)CSSC[C@@H](C(=O)O)NC(=O)[C@H]([C@@H](C)O)NC(=O)[C@H](C)NC(=O)[C@@H]2CSSC[C@@H]3NC(=O)[C@H](CCC(N)=O)NC(=O)[C@H](Cc4ccccc4)NC(=O)[C@H](C)NC(=O)[C@H]([C@@H](C)O)NC(=O)[C@H](CSSC[C@H](NC(=O)[C@H](Cc4ccccc4)NC(=O)[C@H](CO)NC(=O)[C@H](CC(C)C)NC(=O)[C@H](CCCNC(=N)N)NC(=O)[C@H](Cc4ccc(O)cc4)NC(=O)[C@H](CCCCN)NC(=O)[C@H](CCSC)NC(=O)[C@H](CO)NC(=O)[C@H](Cc4cnc[nH]4)NC(=O)[C@H](CCCCN)NC3=O)C(=O)N[C@@H](CCCNC(=N)N)C(=O)N[C@@H](CCCCN)C(=O)N[C@@H]([C@@H](C)O)C(=O)N2)NC(=O)[C@H](CCCNC(=N)N)NC(=O)[C@H](CO)NC(=O)[C@H](CCCCN)NC(=O)[C@@H]2CCCN2C(=O)[C@H]([C@@H](C)CC)NC(=O)[C@H]([C@@H](C)O)NC(=O)[C@H](CC(=O)O)NC1=O | 0.122 | 0.059
4 | CC[C@H](C)[C@@H]1NC(=O)[C@@H](NC(=O)[C@H](CO)NC(=O)[C@@H](N)CCCNC(=N)N)CSSC[C@@H](C(=O)O)NC(=O)[C@H]([C@@H](C)O)NC(=O)CNC(=O)[C@@H]2CSSC[C@@H]3NC(=O)[C@H](CCC(N)=O)NC(=O)[C@H](Cc4ccccc4)NC(=O)[C@H](C)NC(=O)[C@H]([C@@H](C)O)NC(=O)[C@H](CSSC[C@H](NC(=O)[C@H](Cc4ccccc4)NC(=O)[C@H](CCCNC(=N)N)NC(=O)[C@H](CC(C)C)NC(=O)[C@H](CCCNC(=N)N)NC(=O)[C@H](Cc4ccc(O)cc4)NC(=O)[C@H](CCCCN)NC(=O)[C@H](CCSC)NC(=O)[C@H](CO)NC(=O)[C@H](Cc4cnc[nH]4)NC(=O)[C@H](CCCCN)NC3=O)C(=O)N[C@@H](CCCNC(=N)N)C(=O)N[C@@H](CCCCN)C(=O)N[C@@H]([C@@H](C)O)C(=O)N2)NC(=O)[C@H](CCCNC(=N)N)NC(=O)[C@H](CO)NC(=O)[C@H](CCCCN)NC(=O)[C@@H]2CCCN2C(=O)[C@H]([C@@H](C)CC)NC(=O)[C@H]([C@@H](C)O)NC(=O)[C@H](CC(=O)O)NC1=O | 0.368 | 0.158
5 | CC[C@H](C)[C@@H]1NC(=O)[C@@H](NC(=O)[C@H](CO)NC(=O)[C@@H](N)CCCNC(=N)N)CSSC[C@@H](C(=O)O)NC(=O)[C@H]([C@@H](C)O)NC(=O)CNC(=O)[C@@H]2CSSC[C@@H]3NC(=O)[C@H](CCN)NC(=O)[C@H](Cc4ccccc4)NC(=O)[C@H](C)NC(=O)[C@H]([C@@H](C)O)NC(=O)[C@H](CSSC[C@H](NC(=O)[C@H](Cc4ccccc4)NC(=O)[C@H](CO)NC(=O)[C@H](CC(C)C)NC(=O)[C@H](CCCNC(=N)N)NC(=O)[C@H](Cc4ccc(O)cc4)NC(=O)[C@H](CCCCN)NC(=O)[C@H](CCSC)NC(=O)[C@H](CO)NC(=O)[C@H](Cc4c[nH]cn4)NC(=O)[C@H](CCCCN)NC3=O)C(=O)N[C@@H](CCCNC(=N)N)C(=O)N[C@@H](CCCCN)C(=O)N[C@@H]([C@@H](C)O)C(=O)N2)NC(=O)[C@H](CCCNC(=N)N)NC(=O)[C@H](CO)NC(=O)[C@H](CCCCN)NC(=O)[C@@H]2CCCN2C(=O)[C@H]([C@@H](C)CC)NC(=O)[C@H]([C@@H](C)O)NC(=O)[C@H](CC(=O)O)NC1=O | 0.223 | 0.086
6 | CC[C@H](C)[C@@H]1NC(=O)[C@@H](NC(=O)[C@H](CO)NC(=O)[C@@H](N)Cc2cccc3ccccc23)CSSC[C@@H](C(=O)O)NC(=O)[C@H]([C@@H](C)O)NC(=O)CNC(=O)[C@@H]2CSSC[C@@H]3NC(=O)[C@H](CCC(N)=O)NC(=O)[C@H](Cc4ccccc4)NC(=O)[C@H](C)NC(=O)[C@H]([C@@H](C)O)NC(=O)[C@H](CSSC[C@H](NC(=O)[C@H](Cc4ccccc4)NC(=O)[C@H](CO)NC(=O)[C@H](CC(C)C)NC(=O)[C@H](CCCNC(=N)N)NC(=O)[C@H](Cc4ccc(O)cc4)NC(=O)[C@H](CCCCN)NC(=O)[C@H](CCSC)NC(=O)[C@H](CO)NC(=O)[C@H](Cc4cnc[nH]4)NC(=O)[C@H](CCCCN)NC3=O)C(=O)N[C@@H](CCCNC(=N)N)C(=O)N[C@@H](CCCCN)C(=O)N[C@@H]([C@@H](C)O)C(=O)N2)NC(=O)[C@H](CCCNC(=N)N)NC(=O)[C@H](CO)NC(=O)[C@H](CCCCN)NC(=O)[C@@H]2CCCN2C(=O)[C@H]([C@@H](C)CC)NC(=O)[C@H]([C@@H](C)O)NC(=O)[C@H](CC(=O)O)NC1=O | 0.248 | 0.222
7 | CC[C@H](C)[C@@H]1NC(=O)[C@@H](NC(=O)[C@H](CO)NC(=O)[C@@H](N)CCCNC(=N)N)CSSC[C@@H](C(=O)O)NC(=O)[C@H]([C@@H](C)O)NC(=O)CNC(=O)[C@@H]2CSSC[C@@H]3NC(=O)[C@H](CCC(N)=O)NC(=O)[C@H](Cc4ccccc4)NC(=O)[C@H](C)NC(=O)[C@H]([C@@H](C)O)NC(=O)[C@H](CSSC[C@H](NC(=O)[C@H](Cc4ccccc4)NC(=O)[C@H](CO)NC(=O)[C@H](CC(C)C)NC(=O)[C@H](CCCNC(=N)N)NC(=O)[C@H](Cc4ccc(O)cc4)NC(=O)[C@H](CCCCN)NC(=O)[C@H](CCSC)NC(=O)[C@H](CO)NC(=O)[C@H](Cc4c[nH]cn4)NC(=O)[C@H](CCCCN)NC3=O)C(=O)N[C@@H](CCCNC(=N)N)C(=O)N[C@@H](CCCCN)C(=O)N[C@@H](CCCCN)C(=O)N2)NC(=O)[C@H](CCCNC(=N)N)NC(=O)[C@H](CO)NC(=O)[C@H](CCCCN)NC(=O)[C@@H]2CCCN2C(=O)[C@H]([C@@H](C)CC)NC(=O)[C@H]([C@@H](C)O)NC(=O)[C@H](CC(=O)O)NC1=O | 27.9 | 5.98
8 | CC[C@H](C)[C@@H]1NC(=O)[C@@H](NC(=O)[C@H](CO)NC(=O)[C@@H](N)CCCNC(=N)N)CSSC[C@@H](C(=O)O)NC(=O)[C@H]([C@@H](C)O)NC(=O)CNC(=O)[C@@H]2CSSC[C@@H]3NC(=O)[C@H](CCC(N)=O)NC(=O)[C@H](Cc4ccccc4)NC(=O)[C@H](C)NC(=O)[C@H]([C@@H](C)O)NC(=O)[C@H](CSSC[C@H](NC(=O)[C@H](Cc4ccccc4)NC(=O)[C@H](CO)NC(=O)[C@H](CC(C)C)NC(=O)[C@H](CCCNC(=N)N)NC(=O)[C@H](Cc4ccc(O)cc4)NC(=O)[C@H](CCCCN)NC(=O)[C@H](CCSC)NC(=O)[C@H](CO)NC(=O)[C@H](Cc4cnc[nH]4)NC(=O)[C@H](CCCCN)NC3=O)C(=O)N[C@@H](CCCNC(=N)N)C(=O)N[C@@H](CCCCN)C(=O)N[C@@H]([C@@H](C)O)C(=O)N2)NC(=O)[C@H](CCCNC(=N)N)NC(=O)[C@H](CCC(=O)O)NC(=O)[C@H](CCCCN)NC(=O)[C@@H]2CCCN2C(=O)[C@H]([C@@H](C)CC)NC(=O)[C@H]([C@@H](C)O)NC(=O)[C@H](CC(=O)O)NC1=O | 0.055 | 0.023
9 | CC[C@H](C)[C@@H]1NC(=O)[C@H]([C@@H](C)O)NC(=O)[C@H](CC(=O)O)NC(=O)[C@H](CCCNC(=N)N)NC(=O)[C@@H](NC(=O)[C@H](CO)NC(=O)[C@@H](N)CCCNC(=N)N)CSSC[C@@H](C(=O)O)NC(=O)[C@H]([C@@H](C)O)NC(=O)CNC(=O)[C@@H]2CSSC[C@@H]3NC(=O)[C@H](CCC(N)=O)NC(=O)[C@H](Cc4ccccc4)NC(=O)[C@H](C)NC(=O)[C@H]([C@@H](C)O)NC(=O)[C@H](CSSC[C@H](NC(=O)[C@H](Cc4ccccc4)NC(=O)[C@H](CO)NC(=O)[C@H](CC(C)C)NC(=O)[C@H](CCCNC(=N)N)NC(=O)[C@H](Cc4ccc(O)cc4)NC(=O)[C@H](CCCCN)NC(=O)[C@H](CCSC)NC(=O)[C@H](CO)NC(=O)[C@H](Cc4cnc[nH]4)NC(=O)[C@H](CCCCN)NC3=O)C(=O)N[C@@H](CCCNC(=N)N)C(=O)N[C@@H](CCCCN)C(=O)N[C@@H]([C@@H](C)O)C(=O)N2)NC(=O)[C@H](CCCNC(=N)N)NC(=O)[C@H](CO)NC(=O)[C@H](CCCCN)NC(=O)[C@@H]2CCCN2C1=O | 0.123 | 0.098
